One test concerns the target HPK1 (Homo sapiens (Human), UniProt Q92918). Kind of test: HPK1 kinase activity inhibition test (ADP-Glo, luminescence). Conditions: HPK1 5 nM, ATP 2 μM, read-out: IC50, inhibitory effects of compounds on HPK1 kinase activity. It is filed as biochemical. The method in brief:
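HPK1 autophosphorylation was run without added substrate. Kinase and compound were preincubated 10 min at 25° C., then ATP was added for 60 min at 25° C. ADP formed was detected by ADP-Glo luminescence, and IC50 was taken from a four-parameter nonlinear fit.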
On the technique in general: In ADP-Glo the light output rises with the ADP produced.

Another test deals with Human Jurkat-E6-1 cells. Kind of test: Measurement of IL-2 secretion of Jurkat cells by ELISA. The format is cell-based. Conditions: Homo sapiens, Jurkat E6.1, anti-CD3/anti-CD28 stimulation 24 hours, read-out: Percentage of the amount of IL-2 secreted from compound treated/DMSO-treated cells; for activity at 1 µM: test compound 1.0 μM; for activity at 3 µM: test compound 3.0 μM. The method in brief:
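Jurkat-E6-1 cells pre-incubated with compound for 30 min at 37° C, then stimulated 24 h with plate-bound anti-CD3 plus soluble anti-CD28. Secreted IL-2 in medium quantified by sandwich ELISA against a standard curve; expressed as percent of DMSO-treated cells.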
For orientation: In an ELISA, binding on a coated surface is turned into a signal by an enzyme label.

Broadly, the IC50 is the concentration that inhibits the measured activity by half.

Sequence of HPK1 (Q92918 whole entry): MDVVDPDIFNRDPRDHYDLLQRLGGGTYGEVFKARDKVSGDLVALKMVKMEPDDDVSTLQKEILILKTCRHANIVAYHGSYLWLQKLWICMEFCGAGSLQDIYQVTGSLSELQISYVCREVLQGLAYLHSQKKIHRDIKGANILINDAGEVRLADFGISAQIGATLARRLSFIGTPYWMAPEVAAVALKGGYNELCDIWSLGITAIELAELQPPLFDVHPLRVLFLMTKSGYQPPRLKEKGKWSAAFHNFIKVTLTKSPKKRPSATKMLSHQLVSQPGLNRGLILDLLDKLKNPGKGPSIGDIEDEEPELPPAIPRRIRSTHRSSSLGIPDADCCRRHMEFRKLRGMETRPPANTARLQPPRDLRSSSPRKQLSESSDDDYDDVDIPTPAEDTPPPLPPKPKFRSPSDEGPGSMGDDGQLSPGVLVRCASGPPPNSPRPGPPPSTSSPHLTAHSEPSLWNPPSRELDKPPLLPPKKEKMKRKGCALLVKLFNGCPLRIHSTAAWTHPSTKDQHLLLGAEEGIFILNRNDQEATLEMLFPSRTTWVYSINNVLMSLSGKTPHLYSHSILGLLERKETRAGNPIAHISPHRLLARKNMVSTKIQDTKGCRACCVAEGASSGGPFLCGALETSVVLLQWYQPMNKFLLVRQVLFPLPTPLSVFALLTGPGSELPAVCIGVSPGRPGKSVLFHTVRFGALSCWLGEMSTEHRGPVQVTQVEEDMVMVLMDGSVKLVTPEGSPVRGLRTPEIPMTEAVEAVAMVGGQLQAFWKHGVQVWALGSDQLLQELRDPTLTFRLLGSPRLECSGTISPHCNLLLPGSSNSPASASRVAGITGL

Take `COc1cccc(F)c1-n1nc2c(-c3cc(N4CCN(C)CC4)ccc3F)n[nH]c2cc1=O` [Compound 210, 3-(2-fluoro-5-(4-methylpiperazin-1-yl)phenyl)-5-(2-fluoro-6-methoxyphenyl)-1H-pyrazolo[4,3-c]pyridazin-6(5H)-one]: on HPK1, the IC50 was no more than 50 nM. In addition, the activity at 1 µM with Human Jurkat-E6-1 cells was 298%.

For `Cc1cc(C#N)cc(F)c1-n1nc2c(-c3ccc(N4CCN(C(=O)[C@H](C)N)CC4)cc3)n[nH]c2cc1=O` [Compound 82], the IC50 at HPK1 was no more than 50 nM. Moreover, the activity at 3 µM in the test on Human Jurkat-E6-1 cells turned out to be 195%.

Regarding `[2H]C([2H])([2H])N1CCN(c2ccc(-c3n[nH]c4cc(=O)n(-c5c(C)cccc5F)nc34)cc2)CC1` [Compound 81, 5-(2-fluoro-6-methylphenyl)-3-(4-(4-(methyl-d3)piperazin-1-yl)phenyl)-1H-pyrazolo[4,3-c]pyridazin-6(5H)-one], the IC50 at HPK1 was no more than 50 nM. Besides, in the test on Human Jurkat-E6-1 cells, the activity at 3 µM worked out at 679%.

Regarding `Cc1cccc(F)c1-n1nc2c(-c3ccc(N4CCN(C5CC5)CC4)cc3)n[nH]c2cc1=O` [Compound 58, 3-(4-(4-cyclopropylpiperazin-1-yl)phenyl)-5-(2-fluoro-6-methylphenyl)-1H-pyrazolo[4,3-c]pyridazin-6(5H)-one], the IC50 on HPK1 lay within 50 to 500 nM. Besides, the activity at 3 µM in the test on Human Jurkat-E6-1 cells came to 233%.

Regarding `Cc1cccc(F)c1-n1nc2c(-c3ccc(N4CC5CCC(C4)N5C)nc3)n[nH]c2cc1=O` [Compound 109, 5-(2-fluoro-6-methylphenyl)-3-(6-(8-methyl-3,8-diazabicyclo[3.2.1]octan-3-yl)pyrid-3-yl)-1H-pyrazolo[4,3-c]pyridazin-6(5H)-one], on HPK1, the IC50 is no more than 50 nM. The activity at 3 µM with Human Jurkat-E6-1 cells stood at 491%.

Regarding `Cc1cc(Cl)cc(F)c1-n1nc2c(-c3ccc(N4CCN(C)CC4)nc3)n[nH]c2cc1=O` [Compound 108], the IC50 at HPK1 is 50 to 500 nM. In addition, the activity at 3 µM in the test with Human Jurkat-E6-1 cells was 312%.

Take `[2H]C([2H])([2H])N1CCc2ccc(-c3n[nH]c4cc(=O)n(-c5c(C)cccc5F)nc34)cc2C1` [Compound 157, 5-(2-fluoro-6-methylphenyl)-3-(2-(methyl-d3)-1,2,3,4-tetrahydroisoquinolin-7-yl)-1H-pyrazolo[4,3-c]pyridazin-6(5H)-one]: the IC50 on HPK1 is no more than 50 nM. Besides, in the test with Human Jurkat-E6-1 cells, the activity at 3 µM came out at 935%.

In the case of `COc1cc(-c2n[nH]c3cc(=O)n(-c4c(C)cccc4F)nc23)ccc1N1CCN(C)CC1` [Compound 14, 5-(2-fluoro-6-methylphenyl)-3-(3-methoxy-4-(4-methylpiperazin-1-yl)phenyl)-1H-pyrazolo[4,3-c]pyridazin-6(5H)-one], at HPK1, the IC50 is 50 to 500 nM. Moreover, the activity at 3 µM with Human Jurkat-E6-1 cells worked out at 255%.

For the molecule `COc1cccc(F)c1-n1nc2c(-c3ccc(N4CCN(CC(C)(C)O)CC4)cc3)n[nH]c2cc1=O` [Compound 115, 5-(2-fluoro-6-methoxyphenyl)-3-(4-(4-(2-hydroxyl-2-methylpropyl)piperazin-1-yl)phenyl)-1H-pyrazolo[4,3-c]pyridazin-6(5H)-one], the IC50 on HPK1 is no more than 50 nM. For the same molecule, the activity at 3 µM in the test on Human Jurkat-E6-1 cells came out at 542%.

As to `Cc1cccc(F)c1-n1nc2c(-c3cccc(N4CCN(C)CC4)c3)n[nH]c2cc1=O` [Compound 198, 5-(2-fluoro-6-methylphenyl)-3-(3-(4-methylpiperazin-1-yl)phenyl)-1H-pyrazolo[4,3-c]pyridazin-6(5H)-one], the IC50 on HPK1 was no more than 50 nM. The activity at 3 µM with Human Jurkat-E6-1 cells was 280%.

Consider `COc1ccc(-n2nc3c(-c4ccc(N5CCN(C)CC5)cc4)n[nH]c3cc2=O)c(OC)c1` [Compound 25, 5-(2,4-dimethoxyphenyl)-3-(4-(4-methylpiperazin-1-yl)phenyl)-1H-pyrazolo[4,3-c]pyridazin-6(5H)-one], for which the IC50 on HPK1 lay in the range of 50 to 500 nM. Moreover, the activity at 1 µM with Human Jurkat-E6-1 cells amounted to 187%.

With `CC(C)c1cccc(F)c1-n1nc2c(-c3ccc(N4CCN(C)CC4)cc3)n[nH]c2cc1=O` [Compound 29, 5-(2-fluoro-6-isopropylphenyl)-3-(4-(4-methylpiperazin-1-yl)phenyl)-1H-pyrazolo[4,3-c]pyridazin-6(5H)-one], the IC50 at HPK1 was no more than 50 nM. In addition, in the test with Human Jurkat-E6-1 cells, the activity at 1 µM came out at 291%.

As to `COc1cccc(F)c1-n1nc2c(-c3ccc(N4CCN(C)C(C(C)(C)OC)C4)cc3)n[nH]c2cc1=O` (centres unmarked) [Compound 127, 5-(2-fluoro-6-methoxyphenyl)-3-(4-(3-(2-methoxyprop-2-yl)-4-methylpiperazin-1-yl)phenyl)-1H-pyrazolo[4,3-c]pyridazin-6(5H)-one], at HPK1, the IC50 was no more than 50 nM. The activity at 3 µM in the test on Human Jurkat-E6-1 cells was 758%.

For the origin of these results see patent US20230322789A1, “PYRAZOLOPYRIDAZINONE COMPOUND, AND PHARMACEUTICAL COMPOSITION AND USE THEREOF” (BroadenBio Co., Ltd., priority 2020, published 2023).
